Reference: ChEMBL document CHEMBL1144807, “Ciliatamides A-C, bioactive lipopeptides from the deep-sea sponge Aaptos ciliata” (J Nat Prod, 2008)
Converted amounts (≈) assume the structure as drawn. The source made the active and inactive calls. No cut-off for these calls is given here.

Columns and labels:
Leishmania major = test: Antileishmanial activity against Leishmania major egfp promastigotes at 10 ug/ml; assay type: functional; conditions: for inhibition of growth at 10 µg/mL: read-out: GI
HeLa = test: Cytotoxicity against human HeLa cells lines by MTT assay; assay type: cell-based

Compound	inhibition of growth at 10 µg/mL (Leishmania major)	IC50 (HeLa)	Activity (Leishmania major)
C=CCCCCCCCC(=O)N(C)[C@@H](Cc1ccccc1)C(=O)N[C@H]1CCCCNC1=O [CILIATAMIDES A]	50%	50 µg/mL (≈ 113 µM)	
CCCCCCCC(=O)N(C)[C@@H](Cc1ccccc1)C(=O)N[C@H]1CCCCNC1=O [CILIATAMIDES B]	45.5%	4.5 µg/mL (≈ 10.8 µM)	
C=CCCCCCCCC(=O)N(C)[C@@H](Cc1ccccc1)C(=O)N[C@H]1CCCNC1=O [CILIATAMIDES C]		50 µg/mL (≈ 117 µM)	inactive
